Assay results from patent US20220144853A1, “IMIDAZOLINE DERIVATIVES AS CXCR4 MODULATORS” (Université de Paris, priority 2019, published 2022).
Structures can show the parent of a compound that is named as a salt.

Test system: IFN production by activated PBMCs
Experiment: IFN production by R848-activated PBMCs from healthy donors, twINNE reporter cell line
Assay type: cell-based, human
Conditions: Homo sapiens, PBMC, means of two results over 2 healthy donors, R848 5 μg/mL, IT1t: mean over all experiments, read-out: IC50 of anti-inflammatory activity (IFN production)
Protocol: 2) The blood from healthy donors was also obtained from “Etablissement Français du Sang” (convention #19/EFS/029), Paris, France.
In vitro experiments were performed using human peripheral blood mononuclear cells (PBMCs) isolated by density centrifugation from peripheral blood leukocyte separation medium, lymphoprep (Stemcell Technologies).
PBMCs were cultured in RPMI 1640 (Sigma-Aldrich, MO, USA) containing 10% heat-inactivated fetal bovine serum (Sigma-Aldrich, MO, USA) at 37° C./5% CO2.
2) The PBMCs used herein were prepared as described in part A “immune cells preparation”, section 2) above. PBMCs were seeded at 4.10^6/mL. […] Cells were then stimulated with the TLR7/8 agonist resiquimod—R848 (Sigma-Aldrich, MO, USA) at 5 μg/mL.
2) To quantify the secretion of functional IFN, a biological assay based on a stable cell line where luciferase reporter gene is controlled by five Interferon-Stimulated Response Elements (twINNE cell line) was used. It is important to note that the twINNE cell line is the same as the above mentioned STING-37 cell line but with constitutively expressed nanoluciferase. First, supernatants of R848-stimulated PBMCs (see part B, section 2) above) were harvested after 24 h of stimulation and frozen at −20° C. for storage. Then, supernatants were dispensed in culture wells of a 96-well plate containing 35.103 twINNE cells per well in Dulbecco's Modified Eagle's Medium supplemented with 10% Foetal Bovine Serum, 100 U/mL Penicillin and 100 μg/mL Streptomycin (1% Pen-Strep) and 1 mM glutamine (Sigma-Aldrich, MO, USA) at 37° C./5% […]. After 24 h of culture, luciferase activity was determined by adding 60 μL of Bright-Go reagents (Promega, Wisconsin, USA) to culture wells and measuring bioluminescence with EnSpire Multimode Plate Reader (PerkinElmer, Massachusetts, USA). When stated, for IC50 calculation, dose-response curves fitted using the nonlin fit (variable slope) analysis in GraphPad Prism software (GraphPad Software, California, USA).

Compound	IC50 [µM]
C1=C(CSC2=N[C@H]3COC[C@H]3N2)N2C(=N[C@@H]3COC[C@@H]32)S1 (mixture of isomers) [Example 36, mixture of (4aS,7aR)-3-((((3aS,6aR)-3a,4,6,6a-tetrahydro-1H-furo[3,4-d]imidazol-2-yl)thio)methyl)-4a,5,7,7a-tetrahydrofuro[3′,4′:4,5]imidazo[2,1-b]thiazole dihydrochloride and (4aR,7aS)-3-((((3aR,6aS)-3a,4,6,6a-tetrahydro-1H-furo[3,4-d]imidazol-2-yl)thio)methyl)-4a,5,7,7a-tetrahydrofuro[3′,4′: 4,5]imidazo[2,1-b]thiazole dihydrochloride]	≥ 31
CC1(C)CN=C(SCC2=CSC3=N[C@H]4CCCC(C4)N23)N1 (racemic) [Example 23, cis-3-(((5,5-dimethyl-4,5-dihydro-1H-imidazol-2-yl)thio)methyl)-6,7,8,9-tetrahydro-5H-5,9-methanothiazolo[3,2-a][1,3]diazocine dihydrochloride]	≥ 31
CCCCC1CN=C(SCC2=CSC3=N[C@H]4CCCCC4N23)N1 (mixture of isomers) [Example 54, trans-3-(((5-butyl-4,5-dihydro-1H-imidazol-2-yl)thio)methyl)-4a,5,6,7,8,8a-hexahydrobenzo[4,5]imidazo[2,1-b]thiazole dihydrochloride]	≤ 10
C1=C(CSC2=NCC(Cc3ccccc3)N2)N2C(=N[C@H]3CCCCC32)S1 (mixture of isomers) [Example 55, trans-3-(((5-benzyl-4,5-dihydro-1H-imidazol-2-yl)thio)methyl)-4a,5,6,7,8,8a-hexahydrobenzo[4,5]imidazo[2,1-b]thiazole dihydrochloride]	≤ 10
C1=C(CSC2=N[C@H]3CCCC[C@@H]3N2)N2C(=N[C@H]3CCCCC32)S1 (mixture of isomers) [Example 56, trans-3-((((3aS,7aS)-3a,4,5,6,7,7a-hexahydro-1H-benzo[d]imidazol-2-yl)thio)methyl)-4a,5,6,7,8,8a-hexahydrobenzo[4,5]imidazo[2,1-b]thiazole dihydrochloride]	≤ 10
C1=C(CSC2=NCCN2)N2C(=N[C@H]3CCCCC32)S1 (mixture of isomers) [Example 59, trans-3-(((4,5-dihydro-1H-imidazol-2-yl)thio)methyl)-4a,5,6,7,8,8a-hexahydrobenzo[4,5]imidazo[2,1-b]thiazole dihydrochloride]	≤ 10
CC(C)[C@@H]1N=C2SC=C(CSC3=NCC(C)(C)N3)N2[C@H]1C(C)C (racemic) [Example 62, trans-3-(((5,5-dimethyl-4,5-dihydro-1H-imidazol-2-yl)thio)methyl)-5,6-diisopropyl-5,6-dihydroimidazo[2,1-b]thiazole dihydrochloride]	10 to 31
CC1(C)CN2C(CSC3=N[C@H]4CCCC[C@@H]4N3)=CSC2=N1 [Example 4, 3-((((3aS,7aS)-3a,4,5,6,7,7a-hexahydro-1H-benzo[d]imidazol-2-yl)thio)methyl)-6,6-dimethyl-5,6-dihydroimidazo[2,1-b]thiazole dihydrochloride]	≤ 10
CC1(C)CN2C(CSC3=N[C@@H]4CCCC[C@@H]4N3)=CSC2=N1 [Example 5, 3-((((3R,7aS)-3a,4,5,6,7,7a-hexahydro-1H-benzo[d]imidazol-2-yl)thio)methyl)-6,6-dimethyl-5,6-dihydroimidazo[2,1-b]thiazole dihydrochloride]	10 to 31
C1=C(CSC2=NCCN2)N2CCN=C2S1 [Example 6, 3-(((4,5-dihydro-1H-imidazol-2-yl)thio)methyl)-5,6-dihydroimidazo[2,1-b]thiazole dihydrochloride]	10 to 31
CC1(C)CN2C(CSC3=NCCN3)=CSC2=N1 [Example 8, 3-(((4,5-dihydro-1H-imidazol-2-yl)thio)methyl)-6,6-dimethyl-5,6-dihydroimidazo[2,1-b]thiazole dihydrochloride]	10 to 31
CC1(C)CN2C(CSC3=NCCCN3)=CSC2=N1 [Example 9, 6,6-dimethyl-3-(((1,4,5,6-tetrahydropyrimidin-2-yl)thio)methyl)-5,6-dihydroimidazo[2,1-b]thiazole dihydrochloride]	≥ 31
CN1CCN=C1SCC1=CSC2=NC(C)(C)CN12 [Example 11, 6,6-dimethyl-3-(((1-methyl-4,5-dihydro-1H-imidazol-2-yl)thio)methyl)-5,6-dihydroimidazo[2,1-b]thiazole dihydrochloride]	≤ 10
CC1(C)CN2C(CSC3=NCCCCN3)=CSC2=N1 [Example 12, 6,6-dimethyl-3-(((4,5,6,7-tetrahydro-1H-1,3-diazepin-2-yl)thio)methyl)-5,6-dihydroimidazo[2,1-b]thiazole dihydrochloride]	≥ 31
CCCCC1CN=C(SCC2=CSC3=NC(C)(C)CN23)N1 (centres unmarked) [Example 13, 3-(((5-butyl-4,5-dihydro-1H-imidazol-2-yl)thio)methyl)-6,6-dimethyl-5,6-dihydroimidazo[2,1-b]thiazole dihydrochloride]	≤ 10
CC1(C)CN=C(SCC2=CSC3=NCCCN23)N1 [Example 14, 3-(((5,5-dimethyl-4,5-dihydro-1H-imidazol-2-yl)thio)methyl)-6,7-dihydro-5H-thiazolo[3,2-a]pyrimidine dihydrochloride]	≥ 31
CC1(C)CN=C(SCC2=CSC3=NCCCCN23)N1 [Example 15, 3-(((5,5-dimethyl-4,5-dihydro-1H-imidazol-2-yl)thio)methyl)-5,6,7,8-tetrahydrothiazolo[3,2-a][1,3]diazepine dihydrochloride]	≥ 31
CC1(C)CN2C(CSC3=NC(C)(C)C(C)(C)N3)=CSC2=N1 [Example 16, 6,6-dimethyl-3-(((4,4,5,5-tetramethyl-4,5-dihydro-1H-imidazol-2-yl)thio)methyl)-5,6-dihydroimidazo[2,1-b]thiazole dihydrochloride]	≥ 31
CCCCC1CN2C(CSC3=NCC(C)(C)N3)=CSC2=N1 (centres unmarked) [Example 19, 6-butyl-3-(((4,4-dimethyl-4,5-dihydro-1H-imidazol-2-yl)thio)methyl)-5,6-dihydroinidazo[2,1-b]thiazole dihydrochloride]	10 to 31
CC1(C)CN=C(SCC2=CSC3=NC(C)(C)C(C)(C)N23)N1 [Example 20, 3-(((5,5-dimethyl-4,5-dihydro-1H-imidazol-2-yl)thio)methyl)-5,5,6,6-tetramethyl-5,6-dihydroimidazo[2,1-b]thiazole dihydrochloride]	10 to 31
CC1(C)CN=C(SCC2=CSC3=NCCN23)N1 [Example 21, 3-(((5,5-dimethyl-4,5-dihydro-1H-imidazol-2-yl)thio)methyl)-5,6-dihydroimidazo[2,1-b]thiazole dihydrochloride]	10 to 31
CC1(C)CN2C(CSC3=N[C@@H]4CCC[C@@H](C4)N3)=CSC2=N1 [Example 22, 3-((((1R,5S)-2,4-diazabicyclo[3.3.1]non-2-en-3-yl)thio)methyl)-6,6-dimethyl-5,6-dihydroimidazo[2,1-b]thiazole dihydrochloride]	≥ 31
CC1(C)CN2C(CSC3=NCC4(CC4)N3)=CSC2=N1 [Example 24, 3-(((4,6-diazaspiro[2.4]hept-5-en-5-yl)thio)methyl)-6,6-dimethyl-5,6-dihydroimidazo[2,1-b]thiazole dihydrochloride]	10 to 31
CC1(C)CN2C(CSC3=N[C@H]4COC[C@H]4N3)=CSC2=N1 [Example 25, (3aR,6aS)-2-(((6,6-dimethyl-5,6-dihydroinidazo[2,1-b]thiazol-3-yl)methyl)thio)-3a,4,6,6a-tetrahydro-1H-furo[3,4-d]imidazole dihydrochloride]	≥ 31
C1=C(CSC2=NCCN2)N2CCCN=C2S1 [Example 26, 3-(((4,5-dihydro-1H-imidazol-2-yl)thio)methyl)-6,7-dihydro-5H-thiazolo[3,2-a]pyrimidine dihydrochloride]	≥ 31
C1=C(CSC2=NCCN2)N2CCCCN=C2S1 [Example 27, 3-(((4,5-dihydro-1H-imidazol-2-yl)thio)methyl)-5,6,7,8-tetrahydrothiazolo[3,2-a][1,3]diazepine dihydrochloride]	≥ 31
CC1(C)CN=C(SCC2=CSC3=NC(C)(C)CN23)NC1 [Example 28, 3-(((5,5-dimethyl-1,4,5,6-tetrahydropyrimidin-2-yl)thio)methyl)-6,6-dimethyl-5,6-dihydroimidazo[2,1-b]thiazole dihydrochloride]	≥ 31
C1=C(CSC2=NCCCN2)N2CCCN=C2S1 [Example 29, 3-(((1,4,5,6-tetrahydropyrimidin-2-yl)thio)methyl)-6,7-dihydro-5H-thiazolo[3,2-a]pyrimidine dihydrochloride]	≥ 31
CCCCC1CN=C(SCC2=CSC3=NCCN23)N1 (centres unmarked) [Example 30, 3-(((5-butyl-4,5-dihydro-1H-imidazol-2-yl)thio)methyl)-5,6-dihydroimidazo[2,1-b]thiazole dihydrochloride]	≤ 10
